# Reference: ChEMBL document CHEMBL1201862, “PubChem BioAssay data set” (2004)
#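 Values below derive from 48-hour exposures of cells grown in 96-well plates, with endpoints linearly interpolated between the two concentrations bracketing the appropriate inhibition level. GI50 = concentration required for 50% inhibition of growth.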 Activity calls are given as the source filed them. Rule as the data show it: active = GI50 up to about 1.1 µM and inactive = higher.
# What was measured:
# Assay in all cases: NCI tumour cell line growth inhibition, 48 h
# A498 = test system: A498
# CAKI-1 = test system: CAKI-1
# CCRF-CEM = test system: CCRF-CEM
# HCC 2998 = test system: HCC 2998
# HCT-116 = test system: HCT-116
# HCT-15 = test system: HCT-15
# HT-29 = test system: HT-29
# IGROV-1 = test system: IGROV-1
# K562 = test system: K562
# MOLT-4 = test system: MOLT-4
# NCI-H522 = test system: NCI-H522
# OVCAR-3 = test system: OVCAR-3
# SF-295 = test system: SF-295
# SK-MEL-2 = test system: SK-MEL-2
# SN12C = test system: SN12C
# SNB-75 = test system: SNB-75
# TK-10 = test system: TK-10
# UACC-257 = test system: UACC-257
# DU-145 = test system: DU-145
SMILES,GI50 (A498),GI50 (CAKI-1),GI50 (CCRF-CEM),GI50 (HCC 2998),GI50 (HCT-116),GI50 (HCT-15) [µM],GI50 (HT-29),GI50 (IGROV-1),GI50 (K562),GI50 (MOLT-4),GI50 (NCI-H522),GI50 (OVCAR-3),GI50 (SF-295),GI50 (SK-MEL-2),GI50 (SN12C),GI50 (SNB-75),GI50 (TK-10),GI50 (UACC-257),GI50 (DU-145)
C/C=C/C1(NS(=O)(=O)c2ccc(C)cc2)CCC(C(C)(C)C)CC1 (centres undefined),24 µM (inactive),28.8 µM (inactive),19.5 µM (inactive),16.2 µM (inactive),20.1 µM (inactive),28.6,18 µM (inactive),28.8 µM (inactive),35.5 µM (inactive),16.5 µM (inactive),11.6 µM (inactive),17.7 µM (inactive),26.2 µM (inactive),17.3 µM (inactive),18.2 µM (inactive),53.6 µM (inactive),35.8 µM (inactive),25.4 µM (inactive),–
CCOC(=O)NC1C2CC(=O)OC(O2)C1OC(C)=O (centres undefined),> 100 µM (inactive),> 100 µM (inactive),> 100 µM (inactive),> 100 µM (inactive),> 100 µM (inactive),> 100,> 100 µM (inactive),59.7 µM (inactive),> 100 µM (inactive),> 100 µM (inactive),> 100 µM (inactive),> 100 µM (inactive),> 100 µM (inactive),> 100 µM (inactive),99.3 µM (inactive),> 100 µM (inactive),> 100 µM (inactive),> 100 µM (inactive),–
Cc1c2nc3ccccc3sc-2cc(=O)c1C,> 100 µM (inactive),55 µM (inactive),20.9 µM (inactive),> 100 µM (inactive),12.7 µM (inactive),12.9,> 77.3 µM (inactive),> 56.2 µM (inactive),24.3 µM (inactive),34.5 µM (inactive),> 57.3 µM (inactive),35.3 µM (inactive),61.2 µM (inactive),14.4 µM (inactive),> 10 µM (inactive),52.6 µM (inactive),> 100 µM (inactive),10.3 µM (inactive),–
Clc1ccc(-c2c(C3=NCCN3)nnn2-c2ccc(Cl)cc2)cc1,17.4 µM (inactive),33.5 µM (inactive),22.6 µM (inactive),17.1 µM (inactive),15 µM (inactive),30.1,13.9 µM (inactive),56 µM (inactive),18 µM (inactive),11.4 µM (inactive),16 µM (inactive),48.9 µM (inactive),19.5 µM (inactive),13.1 µM (inactive),71.4 µM (inactive),17.8 µM (inactive),19.7 µM (inactive),18.2 µM (inactive),–
O=C(O)/C(=C\c1ccccc1Cl)S(=O)(=O)c1ccccc1,> 100 µM (inactive),> 100 µM (inactive),14.5 µM (inactive),> 100 µM (inactive),> 100 µM (inactive),> 100,> 100 µM (inactive),> 100 µM (inactive),> 100 µM (inactive),> 100 µM (inactive),> 100 µM (inactive),–,> 100 µM (inactive),> 100 µM (inactive),> 100 µM (inactive),> 100 µM (inactive),> 100 µM (inactive),> 100 µM (inactive),–
CCN(CC)C(=O)c1cccc2c(OC)ccc(OC)c12,> 100 µM (inactive),> 100 µM (inactive),> 100 µM (inactive),> 100 µM (inactive),> 100 µM (inactive),> 100,> 100 µM (inactive),> 100 µM (inactive),> 100 µM (inactive),> 100 µM (inactive),> 100 µM (inactive),> 100 µM (inactive),> 100 µM (inactive),> 100 µM (inactive),> 100 µM (inactive),> 100 µM (inactive),> 100 µM (inactive),> 100 µM (inactive),–
O=C(CCc1cc(-c2ccccc2)[nH]c(=S)n1)Nc1ccccc1[N+](=O)[O-],> 100 µM (inactive),> 100 µM (inactive),> 100 µM (inactive),> 100 µM (inactive),> 100 µM (inactive),> 100,> 100 µM (inactive),> 100 µM (inactive),> 100 µM (inactive),> 100 µM (inactive),> 100 µM (inactive),> 100 µM (inactive),> 100 µM (inactive),> 100 µM (inactive),> 100 µM (inactive),> 100 µM (inactive),> 100 µM (inactive),> 100 µM (inactive),–
c1ccc2c(OCCSCCCCCCCCCCSCCOc3cccc4ccccc34)cccc2c1,> 100 µM (inactive),> 100 µM (inactive),> 100 µM (inactive),> 100 µM (inactive),–,> 100,> 100 µM (inactive),> 100 µM (inactive),> 100 µM (inactive),> 100 µM (inactive),> 100 µM (inactive),> 100 µM (inactive),> 100 µM (inactive),> 100 µM (inactive),> 100 µM (inactive),> 100 µM (inactive),> 100 µM (inactive),> 100 µM (inactive),–
Nc1ncnc2c1ncn2C1OC(CSC(F)(F)F)C(O)C1O (centres undefined),> 100 µM (inactive),> 100 µM (inactive),> 100 µM (inactive),> 100 µM (inactive),> 100 µM (inactive),> 100,> 100 µM (inactive),> 100 µM (inactive),> 100 µM (inactive),> 100 µM (inactive),> 100 µM (inactive),> 100 µM (inactive),> 100 µM (inactive),> 100 µM (inactive),> 100 µM (inactive),> 100 µM (inactive),> 100 µM (inactive),> 100 µM (inactive),–
O=C(CC(=O)c1cccc([N+](=O)[O-])c1)C(=O)Nc1ccccc1,> 100 µM (inactive),> 100 µM (inactive),> 100 µM (inactive),> 100 µM (inactive),> 100 µM (inactive),> 100,> 100 µM (inactive),> 100 µM (inactive),> 100 µM (inactive),> 100 µM (inactive),> 100 µM (inactive),> 100 µM (inactive),> 100 µM (inactive),> 100 µM (inactive),> 100 µM (inactive),> 100 µM (inactive),> 100 µM (inactive),> 100 µM (inactive),–
O=C1c2ccccc2C(=O)N1C/C=N/NS(=O)(=O)c1ccc(Cl)cc1,> 100 µM (inactive),> 100 µM (inactive),> 100 µM (inactive),> 100 µM (inactive),> 100 µM (inactive),> 100,> 100 µM (inactive),> 100 µM (inactive),> 100 µM (inactive),> 100 µM (inactive),> 100 µM (inactive),–,> 100 µM (inactive),> 100 µM (inactive),> 100 µM (inactive),66.1 µM (inactive),> 100 µM (inactive),> 100 µM (inactive),–
O=[As](O)(O)c1ccc(/N=N/c2ccc([As](=O)(O)O)cc2)cc1,> 100 µM (inactive),> 100 µM (inactive),–,–,> 100 µM (inactive),> 100,> 100 µM (inactive),> 100 µM (inactive),> 100 µM (inactive),> 100 µM (inactive),> 100 µM (inactive),> 100 µM (inactive),> 100 µM (inactive),> 100 µM (inactive),> 100 µM (inactive),–,> 100 µM (inactive),> 100 µM (inactive),> 100 µM (inactive)
COc1cccc(-c2cc(O)c3cc4c(cc3n2)OCO4)c1,0.069 µM (active),0.0339 µM (active),0.0757 µM (active),0.182 µM (active),0.0902 µM (active),0.118,0.144 µM (active),0.366 µM (active),0.0446 µM (active),0.139 µM (active),0.0238 µM (active),0.038 µM (active),0.0818 µM (active),0.057 µM (active),0.294 µM (active),0.0424 µM (active),0.662 µM (active),0.0452 µM (active),–
CCN(CC)CCOc1ccc(C(O)(Cc2ccc(OC)cc2)c2ccccc2)cc1 (centres undefined),18.1 µM (inactive),21.7 µM (inactive),17.6 µM (inactive),14 µM (inactive),13.8 µM (inactive),19.1,3.83 µM (inactive),32.6 µM (inactive),4.39 µM (inactive),14.4 µM (inactive),20.5 µM (inactive),34.1 µM (inactive),17.7 µM (inactive),14.9 µM (inactive),27.9 µM (inactive),12.6 µM (inactive),28.7 µM (inactive),15.7 µM (inactive),–
CCCCCCCCCCCCCC(=O)O[C@H]1CC[C@H](NC(=O)[C@H](OC)[C@H](O)[C@@H](O)[C@H](O)/C=C/C(C)C)C(=O)N(C)C1 [BENGAMIDE B],> 15 µM (inactive),0.0216 µM (active),0.0122 µM (active),0.00195 µM (active),0.00247 µM (active),0.028,0.00479 µM (active),0.00235 µM (active),0.00811 µM (active),0.00643 µM (active),0.00577 µM (active),0.00643 µM (active),0.00675 µM (active),0.0334 µM (active),0.00419 µM (active),0.105 µM (active),0.179 µM (active),0.0331 µM (active),–
O=C(O)/C=C/c1ccc(O)c(O)c1 [CAFFEIC ACID],> 100 µM (inactive),> 100 µM (inactive),> 57.5 µM (inactive),> 100 µM (inactive),> 100 µM (inactive),> 100,> 100 µM (inactive),> 100 µM (inactive),> 100 µM (inactive),> 100 µM (inactive),97.5 µM (inactive),> 100 µM (inactive),> 100 µM (inactive),> 100 µM (inactive),> 100 µM (inactive),> 24 µM (inactive),> 100 µM (inactive),> 100 µM (inactive),> 100 µM (inactive)
